Results: patent US10024856B2, “Identification and characterization of a peptide affinity reagent for the detection of noroviruses in clinical samples” (priority 2013, dated 2018)

Tested on: NV-VLP
Conditions: 0-5 μg NV-VLP adsorbed on 96-well plate; 5×10^10 pfu of phage; HRP-conjugated M13 phage antibody
Procedure: NV-VLP (5, 2.5, 1.25, 0.63 μg) or 5 μg of unrelated protein BSA was immobilized and binding of each phage, indicated on the X-axis, was detected by M13 phage antibody. OD450 signal is indicated on the Y-axis.
Enzyme-linked immunosorbent assay (ELISA)—Initial ELISA experiments were performed by directly coating 0-5 μg of NV-VLP in 96-well polystyrene plates overnight. Wells were blocked with 2% milk in PBS for 2 hours at room temperature. After washing 3 times with PBS, 1×10^11 phage in 1% milk-PBS were added and incubated at room temperature with gentle rocking for 2 hours. Plates were washed 10 times with PBS-T. HRP-conjugated M13-antibody (Pharmacia Biotech) was diluted 1:5000 in 1% milk PBS and 100 μl was added to each well and incubated at room temperature for 45 minutes. After washing with PBS-T, HRP substrate, 3,3′,5′-tetramethylbenzidine (TMB)(KPL) was added to each well. Development was allowed to proceed for 10-20 minutes and stopped with 1M H3PO4 (KPL). Optical density was measured at 450 nm on a Tecan infinite M200pro plate reader.
The binding of each phage clone to immobilized NV-VLP was tested by phage ELISA. For these experiments, 0-5 μg of NV-VLP or bovine serum albumin (BSA), as a negative control, was adsorbed onto a 96-well plate and 5×10^10 pfu of phage were added to each well and binding was detected with an HRP-conjugated M13 phage antibody (FIG. 1).

Chain of NV-VLP (Q83884 whole entry): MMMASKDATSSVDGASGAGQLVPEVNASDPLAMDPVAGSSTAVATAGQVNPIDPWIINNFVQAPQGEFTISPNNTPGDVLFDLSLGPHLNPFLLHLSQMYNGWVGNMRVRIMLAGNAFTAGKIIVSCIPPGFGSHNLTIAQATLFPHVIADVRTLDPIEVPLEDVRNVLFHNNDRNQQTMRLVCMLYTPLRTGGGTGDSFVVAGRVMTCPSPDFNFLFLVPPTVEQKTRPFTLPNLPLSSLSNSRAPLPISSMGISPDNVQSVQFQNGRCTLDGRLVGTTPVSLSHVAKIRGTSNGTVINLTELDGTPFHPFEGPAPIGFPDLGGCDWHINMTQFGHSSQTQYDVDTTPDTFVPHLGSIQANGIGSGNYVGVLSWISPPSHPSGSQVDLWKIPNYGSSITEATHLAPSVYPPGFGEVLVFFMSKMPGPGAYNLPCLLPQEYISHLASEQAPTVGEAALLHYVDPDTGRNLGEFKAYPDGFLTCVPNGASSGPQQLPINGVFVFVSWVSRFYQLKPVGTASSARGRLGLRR

IQYRSWIPFSYP [NV-O-R5-6]
Binding to immobilized NV-VLP (ELISA signal, OD450): weakest signals
